The record followed here is article PMC5827971 (Cell, 2017).

Assay [1] deals with T1, CLYBL (Homo sapiens, UniProt Q8N0X4).
T1 sequence (Q8N0X4 23-340): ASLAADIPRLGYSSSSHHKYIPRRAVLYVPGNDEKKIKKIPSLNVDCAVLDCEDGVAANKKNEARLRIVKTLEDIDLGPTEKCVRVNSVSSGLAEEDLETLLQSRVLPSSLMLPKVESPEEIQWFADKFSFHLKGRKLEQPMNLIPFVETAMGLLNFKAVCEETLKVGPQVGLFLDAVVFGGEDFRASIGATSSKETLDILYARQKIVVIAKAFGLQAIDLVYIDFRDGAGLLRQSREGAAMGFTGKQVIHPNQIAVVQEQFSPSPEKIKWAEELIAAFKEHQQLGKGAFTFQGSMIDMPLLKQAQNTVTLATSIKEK
Nature of the assay: HPLC-UV discontinuous assay, CoASH formation. The format is biochemical. To be noted: 20 mM glyoxylate, 2.5-200 µM acyl-CoA, 20 mM Tris pH 7.5, 5 mM MgCl2, 1 mM TCEP, 37 °C.

The target in assay [2] is T1, CLYBL. Nature of the assay: HPLC-UV discontinuous assay, acetyl-CoA formation. The format is biochemical. Conditions: citramalyl-CoA lyase; 0.625-80 µM substrate, 20 mM Tris pH 7.5, 5 mM MgCl2, 1 mM TCEP, 37 °C.

Take `CC(=O)SCCNC(=O)CCNC(=O)[C@H](O)C(C)(C)COP(=O)(O)OP(=O)(O)OC[C@H]1O[C@@H](n2cnc3c(N)ncnc32)[C@H](O)[C@@H]1OP(=O)(O)O` [acetyl-CoA]: at CLYBL [1] (malate synthase), the KM result is “KM values for acetyl-CoA or propionyl-CoA, the substrates in the forward reaction”.

With `CCC(=O)SCCNC(=O)CCNC(=O)[C@H](O)C(C)(C)COP(=O)(O)OP(=O)(O)OC[C@H]1O[C@@H](n2cnc3c(N)ncnc32)[C@H](O)[C@@H]1OP(=O)(O)O` [propionyl-CoA], at CLYBL [1] (methylmalate synthase), the KM result is “KM values for acetyl-CoA or propionyl-CoA, the substrates in the forward reaction”.

On to `CC(C)(COP(=O)(O)OP(=O)(O)OC[C@H]1O[C@@H](n2cnc3c(N)ncnc32)[C@H](O)[C@@H]1OP(=O)(O)O)[C@@H](O)C(=O)NCCC(=O)NCCSC(=O)C[C@](C)(O)C(=O)O` [citramalyl-CoA], for which the KM result on CLYBL [2] is listed as “The KM value for citramalyl-CoA is comparable to the KM values for acetyl-CoA or propionyl-CoA”.
